Among the test systems are A498 renal; ACHN renal; CCRF-CEM leukemia; EKVX NSCLC; LOX IMVI melanoma; MDA-MB-435; NCI-H23 lung; OVCAR-3 ovarian; OVCAR-8 ovarian; PC-3 prostate; RXF 393 renal; UACC-62 melanoma.
Common to all, as to assay: NCI-60 cell line screen, 48 h

The results in this text go back to PubChem BioAssay (NCI).

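Step 1: Grow cells in 96-well plates. Step 2: Expose to compound for 48 hours at 5 concentrations. Step 3: Interpolate endpoints linearly; if unreached, use highest concentration. At the TGI there is no net growth.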 A value given as a limit tells only on which side of the number the result lay.

Turning to `NC(C(=O)O)C(O)c1cnc[nH]1` (centres undefined), the TGI with A498 renal, with ACHN renal, in the experiment with CCRF-CEM leukemia, in the experiment on EKVX NSCLC, in the experiment with LOX IMVI melanoma and with MDA-MB-435 was more than 100 µM in each case. For the same molecule, the TGI in the experiment with NCI-H23 lung, in the experiment with OVCAR-3 ovarian, in the experiment on OVCAR-8 ovarian, in the experiment with PC-3 prostate, in the experiment with RXF 393 renal and in the experiment with UACC-62 melanoma was more than 100 µM each time.
As for `COc1nc2c(c(=O)[nH]1)N=C(c1ccc([N+](=O)[O-])cc1)CC(c1ccccc1)N2` (centres undefined), the TGI in the experiment on A498 renal, in the experiment on ACHN renal, in the experiment on CCRF-CEM leukemia, with EKVX NSCLC, in the experiment with LOX IMVI melanoma and with MDA-MB-435 was more than 100 µM in each case. The TGI with NCI-H23 lung, in the experiment on OVCAR-3 ovarian, in the experiment on OVCAR-8 ovarian, with PC-3 prostate, with RXF 393 renal and in the experiment on UACC-62 melanoma was more than 100 µM each time.
With `COc1cc(OC)cc(Oc2nc3ccc(C(F)(F)F)cc3nc2-c2ccccc2)c1`, the TGI with A498 renal, in the experiment with ACHN renal, with CCRF-CEM leukemia, with EKVX NSCLC, with LOX IMVI melanoma and in the experiment on MDA-MB-435 was more than 100 µM throughout. For the same molecule, the TGI in the experiment with NCI-H23 lung, in the experiment on OVCAR-3 ovarian, with OVCAR-8 ovarian, in the experiment with PC-3 prostate, in the experiment with RXF 393 renal and in the experiment on UACC-62 melanoma was more than 100 µM throughout.
For the molecule `O=[N+]([O-])C1=Cc2c(O)ccc(O)c2C2c3ccccc3NC12` (centres undefined), the TGI is 29.8 µM with A498 renal; 16 µM in the experiment on ACHN renal; more than 22.7 µM in the experiment with CCRF-CEM leukemia; 28.6 µM in the experiment on EKVX NSCLC; more than 52.7 µM with LOX IMVI melanoma; 28.6 µM in the experiment with MDA-MB-435. Further, the TGI in the experiment with NCI-H23 lung was 15.8 µM; in the experiment with OVCAR-3 ovarian, 19.3 µM; in the experiment on OVCAR-8 ovarian, more than 42.6 µM; in the experiment with PC-3 prostate, 19 µM; in the experiment on RXF 393 renal, 26.4 µM; in the experiment on UACC-62 melanoma it was 22.7 µM.
As to `CC(C)C1CC(CO)(CNc2nc(N)nc(Cl)c2C=O)C1` (centres undefined), the TGI in the experiment with A498 renal stood at 56.1 µM; in the experiment on ACHN renal, 22.8 µM; in the experiment on CCRF-CEM leukemia it was 6.36 µM; with EKVX NSCLC, 11.4 µM; in the experiment with LOX IMVI melanoma it was 3.81 µM; with MDA-MB-435, 4.58 µM. For the same molecule, the TGI in the experiment with NCI-H23 lung turned out to be 4.64 µM; in the experiment with OVCAR-3 ovarian, 8.77 µM; with OVCAR-8 ovarian it was 8.33 µM; in the experiment on PC-3 prostate, 5.16 µM; in the experiment with RXF 393 renal it was 28.3 µM; with UACC-62 melanoma, 4.11 µM.
As to `CCc1c(N=[N+]=[N-])c2ccccc2oc1=O`, the TGI in the experiment with A498 renal, in the experiment on ACHN renal, with CCRF-CEM leukemia, with EKVX NSCLC, in the experiment with LOX IMVI melanoma and in the experiment with MDA-MB-435 was more than 100 µM throughout. For the same molecule, the TGI in the experiment with NCI-H23 lung, in the experiment with OVCAR-3 ovarian, in the experiment with OVCAR-8 ovarian, with PC-3 prostate, with RXF 393 renal and in the experiment with UACC-62 melanoma was more than 100 µM each time.
Take `CC(=O)OCC1OC(NC(=S)Nn2c(-c3ccccc3)nc3ccccc3c2=O)C(OC(C)=O)C(OC(C)=O)C1OC(C)=O` (centres undefined): the TGI with A498 renal, in the experiment with ACHN renal, with CCRF-CEM leukemia, with EKVX NSCLC, in the experiment with LOX IMVI melanoma and in the experiment with MDA-MB-435 was more than 100 µM throughout. The TGI in the experiment with NCI-H23 lung, in the experiment with OVCAR-3 ovarian, in the experiment on OVCAR-8 ovarian, with PC-3 prostate, with RXF 393 renal and with UACC-62 melanoma was more than 100 µM in each case.
Consider `COc1cc(N(CCC#N)CCC#N)ccc1/C(N=Nc1cccc([N+](=O)[O-])c1)=N\NC(=O)c1ccc(C)cc1`, for which the TGI with A498 renal was more than 100 µM; in the experiment on ACHN renal it was more than 100 µM; in the experiment on CCRF-CEM leukemia it was 99.2 µM; in the experiment with EKVX NSCLC, 63.1 µM; with LOX IMVI melanoma, more than 100 µM; with MDA-MB-435, more than 100 µM. Further, the TGI in the experiment on NCI-H23 lung, in the experiment on OVCAR-3 ovarian, in the experiment with OVCAR-8 ovarian, in the experiment on PC-3 prostate, with RXF 393 renal and in the experiment on UACC-62 melanoma was more than 100 µM throughout.
As to `COc1cc(CCNC2=CC(=O)c3ncccc3C2=O)ccc1O`, the TGI was 32.4 µM in the experiment on A498 renal; 29 µM with ACHN renal; more than 100 µM with CCRF-CEM leukemia; 37.9 µM in the experiment with EKVX NSCLC; 6.08 µM in the experiment on LOX IMVI melanoma; 2.84 µM in the experiment with MDA-MB-435. The TGI with NCI-H23 lung stood at 11.8 µM; in the experiment on OVCAR-3 ovarian it was 5.97 µM; in the experiment on OVCAR-8 ovarian, 14.3 µM; in the experiment on PC-3 prostate it was 22.5 µM; in the experiment with RXF 393 renal, 18 µM; in the experiment on UACC-62 melanoma it was 3.8 µM.
For `CCOC(=O)c1c2ccccc2n2c(=O)n(-c3ccccc3)nnc12`, the TGI in the experiment with A498 renal is more than 100 µM; in the experiment on ACHN renal, more than 100 µM; in the experiment on CCRF-CEM leukemia it was more than 69.5 µM; in the experiment on EKVX NSCLC it was more than 100 µM; in the experiment on LOX IMVI melanoma it was more than 100 µM; with MDA-MB-435, more than 100 µM. Moreover, the TGI in the experiment on NCI-H23 lung, with OVCAR-3 ovarian, with OVCAR-8 ovarian, with PC-3 prostate, with RXF 393 renal and in the experiment on UACC-62 melanoma was more than 100 µM each time.
As to `O=c1[nH]c2ccccc2c(=O)c2cc3ccccc3cc12`, the TGI is 48.4 µM in the experiment on A498 renal; more than 100 µM in the experiment with ACHN renal; more than 100 µM with CCRF-CEM leukemia; more than 100 µM with EKVX NSCLC; more than 100 µM in the experiment on LOX IMVI melanoma; more than 100 µM in the experiment on MDA-MB-435. In addition, the TGI was 47.8 µM in the experiment on NCI-H23 lung; more than 100 µM in the experiment with OVCAR-3 ovarian; 37.7 µM in the experiment on OVCAR-8 ovarian; more than 100 µM with PC-3 prostate; 56.3 µM with RXF 393 renal; more than 100 µM in the experiment on UACC-62 melanoma.
Consider `CN(C)CCCCN1c2ccccc2Sc2ccc(N=[N+]=[N-])cc21`, for which the TGI in the experiment with A498 renal amounted to 21.5 µM; with ACHN renal it was 12.3 µM; in the experiment with CCRF-CEM leukemia, 8.39 µM; in the experiment on EKVX NSCLC it was 26.3 µM; in the experiment with LOX IMVI melanoma, 5.77 µM; in the experiment on MDA-MB-435 it was 4.36 µM. For the same molecule, the TGI came out at 27.7 µM in the experiment on NCI-H23 lung; 20 µM in the experiment with OVCAR-3 ovarian; 22.1 µM with OVCAR-8 ovarian; 10.5 µM in the experiment on PC-3 prostate; 16.1 µM in the experiment with RXF 393 renal; 3.77 µM in the experiment with UACC-62 melanoma.
Take `COC(=O)c1nc2n(n1)-c1ccccc1C(=O)N(Cc1ccccc1)C2`: the TGI with A498 renal, in the experiment on ACHN renal, in the experiment with CCRF-CEM leukemia, in the experiment on EKVX NSCLC, with LOX IMVI melanoma and in the experiment on MDA-MB-435 was more than 100 µM each time. Moreover, the TGI in the experiment with NCI-H23 lung, in the experiment with OVCAR-3 ovarian, in the experiment with OVCAR-8 ovarian, in the experiment with PC-3 prostate, in the experiment on RXF 393 renal and in the experiment on UACC-62 melanoma was more than 100 µM throughout.
`Nc1nc(NCc2ccccc2)cc(NCc2ccccc2)n1`: the TGI in the experiment with A498 renal is 14.5 µM; with ACHN renal, 28.1 µM; in the experiment with CCRF-CEM leukemia, more than 100 µM; with EKVX NSCLC, 41 µM; in the experiment on LOX IMVI melanoma, 45 µM; in the experiment with MDA-MB-435 it was 18.9 µM. Besides, the TGI with NCI-H23 lung is 20 µM; in the experiment on OVCAR-3 ovarian, 20.2 µM; with OVCAR-8 ovarian, 17.3 µM; in the experiment with PC-3 prostate, 16.8 µM; with RXF 393 renal, 26.6 µM; with UACC-62 melanoma, 16.5 µM.
Turning to `C[N+](C)(C)CC(=O)N/N=C\c1c(O)ccc2ccccc12`, the TGI in the experiment on A498 renal was 97.8 µM; with ACHN renal it was more than 100 µM; in the experiment with CCRF-CEM leukemia, 76.1 µM; with EKVX NSCLC, more than 100 µM; in the experiment on LOX IMVI melanoma, more than 100 µM; in the experiment on MDA-MB-435 it was more than 100 µM. In addition, the TGI in the experiment with NCI-H23 lung is more than 100 µM; in the experiment on OVCAR-3 ovarian, more than 100 µM; with OVCAR-8 ovarian, more than 100 µM; in the experiment on PC-3 prostate, more than 100 µM; with RXF 393 renal it was 82.5 µM; in the experiment on UACC-62 melanoma it was more than 100 µM.
On to `NS(=O)(=O)c1ccc(NNc2c3ccccc3nc3c(C(=O)Nc4ccc(S(N)(=O)=O)cc4)cccc23)cc1`, for which the TGI in the experiment on A498 renal was more than 100 µM; in the experiment on ACHN renal, more than 100 µM; with CCRF-CEM leukemia it was 80.3 µM; with EKVX NSCLC, more than 100 µM; with LOX IMVI melanoma it was 27.5 µM; in the experiment on MDA-MB-435, more than 100 µM. Moreover, the TGI in the experiment with NCI-H23 lung is more than 100 µM; in the experiment with OVCAR-3 ovarian it was more than 100 µM; with OVCAR-8 ovarian, more than 100 µM; in the experiment on PC-3 prostate it was more than 100 µM; with RXF 393 renal, 64.5 µM; in the experiment with UACC-62 melanoma, more than 100 µM.
Take `COc1cc(Nc2nc(NS(=O)(=O)c3cc(C)c(Cl)cc3S)n[nH]2)cc(OC)c1OC`: the TGI in the experiment with A498 renal, with ACHN renal, in the experiment on CCRF-CEM leukemia, with EKVX NSCLC, in the experiment on LOX IMVI melanoma and in the experiment on MDA-MB-435 was more than 100 µM throughout. The TGI in the experiment with NCI-H23 lung, with OVCAR-3 ovarian, in the experiment with OVCAR-8 ovarian, in the experiment on PC-3 prostate, with RXF 393 renal and in the experiment on UACC-62 melanoma was more than 100 µM each time.
